Measured values as given in publication PMC5754384, “Evaluation of carboxamide-type synthetic cannabinoids as CB1/CB2 receptor agonists: difference between the enantiomers” (Forensic Toxicology, 2017).
Entries after “also recorded” stand apart in the source; their conditions may differ.

Experiments:
human CB1 receptor = human CB1 receptor (Homo sapiens, UniProt P21554); test: [35S]GTPγS binding assay, CB1 receptor agonistic activity; format: biochemical; details: for Human CB1 receptor S/R ratio: EC50 value ratio of an (S)-enantiomer to the corresponding (R)-enantiomer; for CB1 receptor agonist activity (in words): [35S]GTPγS binding, maximum tested concentration 1.0 × 10^−4 M; for difference in the EC50 levels between the enantiomers to activate the CB1 receptor: (S)-enantiomer lower than (R)-enantiomer
Sequence of human CB1 receptor (P21554 whole entry): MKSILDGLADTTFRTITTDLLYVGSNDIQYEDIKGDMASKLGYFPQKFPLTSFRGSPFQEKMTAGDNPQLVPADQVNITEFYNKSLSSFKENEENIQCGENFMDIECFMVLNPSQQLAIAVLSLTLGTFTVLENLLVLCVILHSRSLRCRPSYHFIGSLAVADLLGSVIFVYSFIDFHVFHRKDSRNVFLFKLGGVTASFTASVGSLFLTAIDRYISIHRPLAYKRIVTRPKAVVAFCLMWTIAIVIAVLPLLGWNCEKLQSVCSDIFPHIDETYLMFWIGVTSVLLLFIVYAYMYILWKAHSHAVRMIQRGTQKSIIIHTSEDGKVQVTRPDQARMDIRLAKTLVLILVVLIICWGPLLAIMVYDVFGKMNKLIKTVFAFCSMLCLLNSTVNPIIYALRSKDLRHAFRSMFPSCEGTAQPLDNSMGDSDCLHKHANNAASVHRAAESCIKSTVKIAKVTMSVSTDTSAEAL
Experimental: (§1) For the evaluation of CB1/CB2 cannabinoid receptor activity, [^35S]GTPγS binding assays were performed. These assays were performed at ADME and Tox. Research Institute, Sekisui Medical Co., Ltd. (Tokai-mura, Ibaraki, Japan).

human CB2 receptor = human CB2 receptor (Homo sapiens, UniProt P34972); test: [35S]GTPγS binding assay, CB2 receptor agonistic activity; format: biochemical; details: for Selective index (CB1/CB2): EC50 ratio of the CB1 to CB2; for Human CB2 receptor S/R ratio: EC50 value ratio of an (S)-enantiomer to the corresponding (R)-enantiomer; for EC50: Human CB2 receptor EC50, [35S]GTPγS binding, tested 1 × 10^−11 to 1 × 10^−4 M; for CB2 receptor agonist activity (in words): [35S]GTPγS binding
Sequence of human CB2 receptor (P34972 whole entry): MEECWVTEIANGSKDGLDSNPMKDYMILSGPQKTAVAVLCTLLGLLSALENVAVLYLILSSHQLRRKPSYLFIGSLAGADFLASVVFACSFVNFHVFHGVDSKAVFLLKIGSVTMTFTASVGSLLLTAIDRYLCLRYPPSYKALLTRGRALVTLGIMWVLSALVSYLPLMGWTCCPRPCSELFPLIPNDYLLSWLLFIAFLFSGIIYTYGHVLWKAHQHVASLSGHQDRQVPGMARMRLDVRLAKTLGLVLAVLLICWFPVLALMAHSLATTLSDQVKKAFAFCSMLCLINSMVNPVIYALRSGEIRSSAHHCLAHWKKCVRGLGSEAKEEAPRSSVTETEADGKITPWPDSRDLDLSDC
Experimental: as §1

COC(=O)[C@@H](NC(=O)c1cn(Cc2ccc(F)cc2)c2ccccc12)C(C)(C)C [(S)MDMB-FUBICA, Methyl (S)-2-[1-(4-fluorobenzyl)-1H-indole-3-carboxamido]-3,3-dimethylbutanoate]
EC50 (human CB1 receptor): 9.72 nM | Human CB1 receptor S/R ratio (human CB1 receptor): <0.0001 | CB1 receptor agonist activity (in words) (human CB1 receptor): could activate both of these receptors at nanomolar levels | Selective index (CB1/CB2) (human CB2 receptor): 9.08 | Human CB2 receptor S/R ratio (human CB2 receptor): 0.35 | EC50 (human CB2 receptor): 1.07 nM | CB2 receptor agonist activity (in words) (human CB2 receptor): could activate both of these receptors at nanomolar levels

CCOC(=O)[C@@H](NC(=O)c1nn(Cc2ccc(F)cc2)c2ccccc12)C(C)C [(S)EMB-FUBINACA, Ethyl [1-(4-fluorobenzyl)-1H-indazole-3-carbonyl]-L-valinate]
EC50 (human CB1 receptor): 0.458 nM | Human CB1 receptor S/R ratio (human CB1 receptor): 0.015 | Selective index (CB1/CB2) (human CB2 receptor): 0.214 | Human CB2 receptor S/R ratio (human CB2 receptor): 2.5 | EC50 (human CB2 receptor): 2.14 nM

NC(=O)[C@@H](Cc1ccccc1)NC(=O)c1nn(CC2CCCCC2)c2ccccc12 [(R)-N-(1-Amino-1-oxo-3-phenylpropan-2-yl)-1-(cyclohexylmethyl)-1H-indazole-3-carboxamide]
EC50 (human CB1 receptor): 33700 nM | Human CB1 receptor S/R ratio (human CB1 receptor): 0.0074 | Selective index (CB1/CB2) (human CB2 receptor): 68.8 | Human CB2 receptor S/R ratio (human CB2 receptor): 0.017 | EC50 (human CB2 receptor): 490 nM

COC(=O)C(NC(=O)c1cn(Cc2ccc(F)cc2)c2ccccc12)C(C)(C)C (stereo not drawn) [MDMB-FUBICA, methyl 2-[1-(4-fluorobenzyl)-1H-indole-3-carboxamido]-3,3-dimethylbutanoate]
difference in the EC50 levels between the enantiomers to activate the CB1 receptor (human CB1 receptor): more than 10,000 fold

CC(C)[C@@H](NC(=O)c1nn(Cc2ccccc2F)c2ccccc12)C(N)=O [(R)AB-FUBINACA 2-fluorobenzyl isomer, (R)-N-(1-Amino-3-methyl-1-oxobutan-2-yl)-1-(2-fluorobenzyl)-1H-indazole-3-carboxamide]
EC50 (human CB1 receptor): 14.1 nM | Human CB1 receptor S/R ratio (human CB1 receptor): 0.21 | Selective index (CB1/CB2) (human CB2 receptor): 22.5 | Human CB2 receptor S/R ratio (human CB2 receptor): 3.9 | EC50 (human CB2 receptor): 0.627 nM

CCOC(=O)[C@H](NC(=O)c1nn(Cc2ccc(F)cc2)c2ccccc12)C(C)C [(R)EMB-FUBINACA, Ethyl [1-(4-fluorobenzyl)-1H-indazole-3-carbonyl]-D-valinate]
EC50 (human CB1 receptor): 30.7 nM | Human CB1 receptor S/R ratio (human CB1 receptor): 0.015 | Selective index (CB1/CB2) (human CB2 receptor): 35.6 | Human CB2 receptor S/R ratio (human CB2 receptor): 2.5 | EC50 (human CB2 receptor): 0.863 nM

CC(C)[C@H](NC(=O)c1nn(Cc2ccccc2F)c2ccccc12)C(N)=O [(S)AB-FUBINACA 2-fluorobenzyl isomer, (S)-N-(1-Amino-3-methyl-1-oxobutan-2-yl)-1-(2-fluorobenzyl)-1H-indazole-3-carboxamide]
EC50 (human CB1 receptor): 2.92 nM | Human CB1 receptor S/R ratio (human CB1 receptor): 0.21 | Selective index (CB1/CB2) (human CB2 receptor): 1.20 | Human CB2 receptor S/R ratio (human CB2 receptor): 3.9 | EC50 (human CB2 receptor): 2.44 nM

CCOC(=O)[C@H](NC(=O)c1nn(CCCCCF)c2ccccc12)C(C)C [(R)5F-EMB-PINACA, Ethyl [1-(5-fluoropentyl)-1H-indazole-3-carbonyl]-D-valinate]
EC50 (human CB1 receptor): 35.9 nM | Human CB1 receptor S/R ratio (human CB1 receptor): 0.14 | Selective index (CB1/CB2) (human CB2 receptor): 21.4 | Human CB2 receptor S/R ratio (human CB2 receptor): 4.1 | EC50 (human CB2 receptor): 1.68 nM

NC(=O)[C@H](Cc1ccccc1)NC(=O)c1nn(CC2CCCCC2)c2ccccc12 [(S)-N-(1-Amino-1-oxo-3-phenylpropan-2-yl)-1-(cyclohexylmethyl)-1H-indazole-3-carboxamide]
EC50 (human CB1 receptor): 251 nM | difference in the EC50 levels between the enantiomers to activate the CB1 receptor (human CB1 receptor): 134 fold | Human CB1 receptor S/R ratio (human CB1 receptor): 0.0074 | Selective index (CB1/CB2) (human CB2 receptor): 31.0 | Human CB2 receptor S/R ratio (human CB2 receptor): 0.017 | EC50 (human CB2 receptor): 8.09 nM

COC(=O)[C@H](NC(=O)c1cn(Cc2ccc(F)cc2)c2ccccc12)C(C)(C)C [(R)MDMB-FUBICA, Methyl (R)-2-[1-(4-fluorobenzyl)-1H-indole-3-carboxamido]-3,3-dimethylbutanoate]
EC50 (human CB1 receptor): > 100000 nM | Human CB1 receptor S/R ratio (human CB1 receptor): <0.0001 | CB1 receptor agonist activity (in words) (human CB1 receptor): lacks CB1 receptor activity; also recorded: not confirmed; also recorded: no [^35S]GTPγS binding activity | selective index of CB1/CB2 (human CB2 receptor; CB2 over CB1, from EC50 values): more than 3.2 × 10^4 fold | Selective index (CB1/CB2) (human CB2 receptor): >30,000 | Human CB2 receptor S/R ratio (human CB2 receptor): 0.35 | EC50 (human CB2 receptor): 3.1 nM | CB2 receptor agonist activity (in words) (human CB2 receptor): function as an agonist of the CB2 receptor; also recorded: functioned only on the CB2 receptor as an agonist

CCOC(=O)[C@@H](NC(=O)c1nn(CCCCCF)c2ccccc12)C(C)C [(S)5F-EMB-PINACA, Ethyl [1-(5-fluoropentyl)-1H-indazole-3-carbonyl]-L-valinate]
EC50 (human CB1 receptor): 4.96 nM | Human CB1 receptor S/R ratio (human CB1 receptor): 0.14 | Selective index (CB1/CB2) (human CB2 receptor): 0.718 | Human CB2 receptor S/R ratio (human CB2 receptor): 4.1 | EC50 (human CB2 receptor): 6.91 nM
